Legend:
[1] = The compound was evaluated for the inhibition of [125I]- Angiotensin II (AII) binding to rat mesenteric membranes; type: cell membranes, Membrane
[2] = species on record: Oryctolagus cuniculus; assay: The compound was evaluated for the inhibition of angiotensin II (AII) induced rabbit aorta constriction; type: functional
[3] = system: Rattus norvegicus; assay: The compound was evaluated for the inhibition of Angiotensin II (AII) pressor response in conscious normotensive rats; type: functional; settings: read-out: ID50 (the source's name)

IC50 [1]	SMILES	Kb [2]	ED50 [3]
8.9 µM	CCCCc1ncc(/C=C\C(=O)O)n1Cc1ccccc1Cl	0.81 µM	
	CCCCc1ncc(/C=C(/Cc2ccsc2)C(=O)O)n1Cc1ccccc1Cl	0.051 µM	3.6 mg/kg
	CCCCc1nc(Cl)c(CC(=O)O)n1Cc1ccccc1Cl	2.7 µM	30 mg/kg
2.6 µM	CCCCc1ncc(/C=C(/Cc2ccccc2)C(=O)O)n1Cc1ccccc1Cl	0.064 µM	14 mg/kg
	CCCCc1ncc(/C=C(/Cc2ccsc2)C(=O)O)n1Cc1ccc(C(=O)O)cc1	0.00021 µM	0.08 mg/kg
	CCCCc1ncc(CC(=O)O)n1Cc1ccccc1Cl		22.5 mg/kg
